Results on 4 compounds are retold here after patent US12410161B2, “Tetrahydrobenzo-quinoline sulfonamides derivative compounds” (UCB Biopharma SRL, priority 2019, dated 2025).

Test [1] deals with T1, IgE-Tb binding to sFcεR1α-Y131A-AF488 (Homo sapiens, UniProt P01854, N146Q/N252Q).
T1 construct: fused on or other part: LanthaScreen amine-reactive terbium chelate label on IgE-Fc (about 4 Tb per IgE-Fc)
Description: In vitro FRET assay of IgE-Tb binding to sFcεR1α receptor (protocol for examples 9 and 10, 18 hours incubation). Conditions: examples 9 and 10: compound incubated 30 minutes with IgE-Tb before sFcεR1α-Y131A-AF488; incubated 18 hours at room temperature; read-out: FRET IC50 range. As to the method:
In vitro Biochemical Assay:
Protocol for preparation of IgE-Tb reagent
86 nmoles of IgE-Fc(N265Q, N371Q) (Young et al., 1995) at 172 μM in 100 mM NaHCO3, pH 9.5 was added to 1 mg of LanthaScreen™ Amine Reactive Tb Chelate (ThermoFisher catalogue number PV3583) and incubated for 16 hours at 20° C. The material was then buffer exchanged into Phosphate Buffered Saline (being, 137 mM NaCl, 2.7 mM KCl, 10 mM Na2HPO4, 1.8 mM K2HPO4, pH 7.4) and the material quantified and the degree of Tb conjugation determined by measuring the absorption at 280 nm and 343 nm.
(§1) The integrity of the conjugated material was determined by analytical size exclusion chromatography on a 5200 HR 10×300 column (GE Healthcare). […]
175 nmoles of protein was added to 1 mg of Alexa Fluor™ 488 hydrazide (Invitrogen) and incubated for 16 hours at 22° C. […] The protein was buffer exchanged into Phosphate Buffered Saline (being, 137 mM NaCl, 2.7 mM KCl, 10 mM Na2HPO4, 1.8 mM K2HPO4, pH 7.4) and the material quantified and the degree of Alexa Fluor™ 488 conjugation determined by measuring the absorption at 280 nm and 495 nm.
as §1
The aim was to measure binding of IgE-Tb to receptor, and the inhibition thereof by compounds, using an in vitro Fluorescence Resonance Energy Transfer (FRET) Assay. […]

Test [2] addresses T2, IgE-Tb binding to soluble IgE receptor FcεRIα-Y131A-AF488 (Homo sapiens, UniProt P0DOX4, N265Q/N371Q).
T2 construct: 86 nmoles of IgE-Fc(N265Q, N371Q) (Young et al., 1995)
Kind of test: In vitro FRET assay of IgE-Tb binding to FcεRIα receptor (protocol for most examples, 2 hours incubation). Conditions: 5 nM IgE-Tb, 25 nM FcεRIα-Y131A-AF488; incubated 2 hours at room temperature; read-out: FRET IC50 range. How it is done:
In vitro Biochemical Assay: Protocol for preparation of IgE-Tb reagent 86 nmoles of […]) (Young et al., 1995) at 172 μM in 100 mM NaHCO3, pH 9.5 was added to 1 mg of LanthaScreenTM Amine Reactive Tb Chelate (ThermoFisher catalogue number PV3583) and incubated for 16 hours at 20° C. The material was then buffer exchanged into Phosphate Buffered Saline (being, 137 mM NaCl, 2.7 mM KCl, 10 mM Na2HPO4, 1.8 mM K2HPO4, pH 7.4) and the material quantified and the degree of Tb conjugation determined by measuring the absorption at 280 nm and 343 nm. The integrity of the conjugated material was determined by analytical size exclusion chromatography on a 5200 HR 10×300 column (GE Healthcare). Typical conjugation ratios were 4:1 Tb:IgE-Fc. • Young R J., Owens, […]., Chan C M W., Shi J., Hide […]., Henry A J., Sutton B J., and Gould H J (1995) Protein Engineering 8:193-199 Protocol for preparation of […] reagent […] Oxidation was quenched with the addition of 40 μl of ethanediol and incubation for 60 minutes at 22° C. The protein was buffer exchanged in to conjugation buffer (50 mM NaHCO3, 150 mM NaCl, pH 9.5) and concentrated to 750 μM. 175 nmoles of protein was added to 1 mg of Alexa FluorTM 488 hydrazide (Invitrogen) and incubated for 16 hours at 22° C. […] The protein was buffer exchanged into Phosphate Buffered Saline (being, 137 mM NaCl, 2.7 mM KCl, 10 mM Na2HPO4, 1.8 mM K2HPO4, pH 7.4) and the material quantified and the degree of Alexa FluorTM 488 conjugation determined by measuring the absorption at 280 nm and 495 nm. The integrity of the conjugated material was determined by analytical size exclusion chromatography on a 5200 HR 10×300 column (GE Healthcare). Typical conjugation ratios were 2:1 Alexa FluorTM488: sFcεR1α • Cook J P D., Henry […]., Owens R J., Sutton B J., and Gould H J (1997) Biochemistry 36:15579-15588 The aim was to measure binding of IgE-Tb to receptor, and the inhibition thereof by compounds, using an in vitro Fluorescence Resonance Energy Transfer (FRET) Assay. Reagents FRET reagents used were IgE labelled with Terbium (FRET donor), and soluble IgE receptor FcεRIα with a Y131A mutation, labelled with Alexa FluorTM 488 (FRET acceptor). Unlabelled FcεRIα was also used to generate a background control. The assay buffer consisted of 20 mM Tris pH7.2, 150 mM NaCl, and 0.002% Tween, 1% DMSO. Assay Reaction For most of the examples the assay was conducted according to the following: Each assay reaction was conducted in a volume of 25 μl in a 384-well half-volume plate. 10 point compound serial dilutions (3-fold) were generated in DMSO at a concentration of ×50 that of the final assay concentration (FAC). Compound solutions were then prepared by IgE-Tb diluting 10-fold in assay buffer. For the assay, 5 μl of diluted compound was added to 10 μl of IgE-Tb, followed by addition of 10111 FcεRIα-Y131A-AF488. FRET reagents FACs were 5 nM IgE-Tb, 25 nM FcεRIα-Y131A-AF488. Usually the top FAC of compound in the assay was 10 μM. The final DMSO concentration was 2%. The minimum signal (MIN) was measured by adding 5 μl unlabelled FcεRIα at 1 μM (FAC=200 nM) to the FRET reagents. The maximum FRET signal (MAX) was measured in wells containing FRET reagents but no compound. The assay was incubated for 2 hours at room temperature, protected from light and evaporation, and with gentle agitation. FRET Measurement Measurement of FRET for each well was carried out by exciting at 330 nm and measuring emission at 495/520 nm using an Envision plate reader (Perkin Elmer). FRET ratio was calculated as follows: Emission at 520/Emission at 495×1000. The FRET ratio was used for the data analysis. Data Analysis Z' was calculated as follows (σ=standard deviation and μ=mean): 1-((3×σMAX)+(3×σMIN))/(μMAX-/μMIN) Z' above 0.5 was considered a good assay. Background signal (MIN) was subtracted from all wells. Using the background subtracted values, the percent inhibition by compound in each test-well was calculated as follows: 100-Test-well FRET ratio/MAX FRET ratio×100. […]

The structures appear in SMILES notation.

T1 sequence (P01854 whole entry N146Q/N252Q, the tested form may be a part): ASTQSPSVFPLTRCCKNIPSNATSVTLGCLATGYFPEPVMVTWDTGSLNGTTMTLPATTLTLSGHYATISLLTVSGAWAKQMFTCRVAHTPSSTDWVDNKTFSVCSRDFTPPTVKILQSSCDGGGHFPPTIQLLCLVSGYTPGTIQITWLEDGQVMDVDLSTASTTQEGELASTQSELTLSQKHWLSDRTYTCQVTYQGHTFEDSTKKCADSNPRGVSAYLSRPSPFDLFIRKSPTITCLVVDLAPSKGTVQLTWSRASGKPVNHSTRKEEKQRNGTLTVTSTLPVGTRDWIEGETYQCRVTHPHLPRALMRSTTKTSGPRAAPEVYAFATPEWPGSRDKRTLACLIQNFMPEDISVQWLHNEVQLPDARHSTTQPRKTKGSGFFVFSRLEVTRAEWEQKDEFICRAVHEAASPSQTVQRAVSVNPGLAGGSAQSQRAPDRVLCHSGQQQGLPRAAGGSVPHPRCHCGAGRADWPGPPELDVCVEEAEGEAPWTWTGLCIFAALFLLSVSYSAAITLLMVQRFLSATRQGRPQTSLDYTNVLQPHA
T2 sequence (P0DOX4 224-547 N265Q/N371Q limits assumed): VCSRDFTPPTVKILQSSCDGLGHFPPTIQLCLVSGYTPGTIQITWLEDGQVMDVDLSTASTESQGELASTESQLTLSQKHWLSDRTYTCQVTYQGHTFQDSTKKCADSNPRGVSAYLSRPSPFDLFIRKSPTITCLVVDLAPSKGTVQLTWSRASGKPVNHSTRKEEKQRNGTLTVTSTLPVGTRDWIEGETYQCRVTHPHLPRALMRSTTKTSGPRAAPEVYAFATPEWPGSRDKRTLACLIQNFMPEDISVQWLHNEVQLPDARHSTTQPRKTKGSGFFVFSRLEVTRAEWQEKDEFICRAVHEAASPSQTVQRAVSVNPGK

`CC(C)CNS(=O)(=O)c1c2c(cc3c1NC(C1CC1)=NO3)CCCC2` [Example 10, 3-cyclopropyl-N-isobutyl-6,7,8,9-tetrahydro-4H-benzo[g][1,2,4]benzoxadiazine-5-sulfonamide]: the IC50 in test [1] was in the range of 50 to 100 nM. On to `CC(C)CNS(=O)(=O)c1c2c(cc3oc(C4CC4)nc13)CCC(n1cnnc1Nc1cc(C(F)F)nn1C)C2` (stereo not shown) [Example 9, 2-cyclopropyl-6-[3-[[5-(difluoromethyl)-2-methylpyrazol-3-yl]amino]-1,2,4-triazol-4-yl]-N-(2-methylpropyl)-5,6,7,8-tetrahydrobenzo[f][1,3]benzoxazole-4-sulfonamide], for which the IC50 in test [1] fell in the range of 50 to 100 nM.

Turning to `CC(C)CNS(=O)(=O)c1c2c(cc3cnc(C4CC4)cc13)CC(C(=O)NCC(C)(C)C)CC2` (stereo not shown) [Example 6, 3-cyclopropyl-N-(2,2-dimethylpropyl)-5-(2-methylpropylsulfamoyl)-6,7,8,9-tetrahydrobenzo[g]isoquinoline-8-carboxamide], in test [2], the IC50 was in the range of 100 to 2000 nM. With `CC(C)CNS(=O)(=O)c1c2c(cc3cnc(C4CC4)cc13)CCC(C(=O)NCc1ccccc1)C2` (stereo not shown) [Example 8, N-benzyl-3-cyclopropyl-5-(2-methylpropylsulfamoyl)-6,7,8,9-tetrahydrobenzo[g]isoquinoline-7-carboxamide], the IC50 in test [2] is 1 to 50 nM.

Broadly, the IC50 is the concentration that inhibits the measured activity by half.
